# System: hepatocytes
# Experiment: RNA-seq of hepatocytes treated with Phase III failure compounds
# Method: RNA-seq was performed to determine the effects of the compounds on hepatocytes.
# Significance was determined by the criteria of FPKM≥0.5, a log 2(fold-change)≥1, and a […].
compound,measurement,setting,value
"CCCCCCCCCCCCCCCCOCCCOP(=O)(O)CO[C@H](CO)Cn1ccc(N)nc1=O [CMX001 (Brincidofovir), Brincidofovir]",significant changes in gene expression,"RNA-seq of Table 36, FPKM≥0.5, log 2(fold-change)≥1, q-value≤0.05",not observed to cause any significant changes in gene expression
same,significant modulation of expression of any of the genes analyzed,"RNA-seq, p≤0.05, hepatocytes",not observed to significantly modulate expression
same,effect on disease gene expression,"RNA-seq, hepatocytes",no effect on any disease gene
"C=CC(=O)Nc1cccc(Nc2nc(Nc3ccc(N4CCN(C(C)=O)CC4)cc3OC)ncc2C(F)(F)F)c1 [CO-1686 (Rociletinib), Rociletinib]",Number (#) of genes having significantly changed expression,"RNA-seq, Phase III failure compounds, hepatocytes, significance: FPKM≥0.5, log 2(fold-change)≥1, q-value≥0.05 (so in the source)",391
same,"B2M expression, RNA-seq result","gene B2M, hepatocytes",−0.08
same,"B9D2 expression, RNA-seq result","gene B9D2, hepatocytes",−0.29
same,"BAAT expression, RNA-seq result","gene BAAT, hepatocytes",0.22
same,"BBOX1 expression, RNA-seq result","gene BBOX1, hepatocytes",−0.45
same,"BBS10 expression, RNA-seq result","gene BBS10, hepatocytes",−0.28
same,"BCHE expression, RNA-seq result","gene BCHE, hepatocytes",−0.79
same,"BCKDHB expression, RNA-seq result","gene BCKDHB, hepatocytes",−0.38
same,"BCKDK expression, RNA-seq result","gene BCKDK, hepatocytes",−0.45
same,"BCO1 expression, RNA-seq result","gene BCO1, hepatocytes",−0.53
same,"BCR expression, RNA-seq result","gene BCR, hepatocytes",−0.26
same,"BLNK expression, RNA-seq result","gene BLNK, hepatocytes",0.75
same,"BLOC1S3 expression, RNA-seq result","gene BLOC1S3, hepatocytes",0.76
same,"BMPR1A expression, RNA-seq result","gene BMPR1A, hepatocytes",0.07
same,"BRAF expression, RNA-seq result","gene BRAF, hepatocytes",0.32
same,"BSCL2 expression, RNA-seq result","gene BSCL2, hepatocytes",−0.58
same,"BTD expression, RNA-seq result","gene BTD, hepatocytes",0.25
same,"C4A expression, RNA-seq result","gene C4A, hepatocytes",0.16
same,"C9 expression, RNA-seq result","gene C9, hepatocytes",−0.21
same,"C10orf10 expression, RNA-seq result","gene C10orf10, hepatocytes",0.81
same,"C10orf11 expression, RNA-seq result","gene C10orf11, hepatocytes",0.1
same,"C15orf41 expression, RNA-seq result","gene C15orf41, hepatocytes",0.03
same,"CA2 expression, RNA-seq result","gene CA2, hepatocytes",0.48
same,"CA5A expression, RNA-seq result","gene CA5A, hepatocytes",−0.02
same,"CA12 expression, RNA-seq result","gene CA12, hepatocytes",0.59
same,"CAV1 expression, RNA-seq result","gene CAV1, hepatocytes",−0.47
same,"CCND1 expression, RNA-seq result","gene CCND1, hepatocytes",−2.24
same,"CD46 expression, RNA-seq result","gene CD46, hepatocytes",−0.02
same,"CD81 expression, RNA-seq result","gene CD81, hepatocytes",0.02
same,"CD320 expression, RNA-seq result","gene CD320, hepatocytes",−0.58
same,"CDAN1 expression, RNA-seq result","gene CDAN1, hepatocytes",0.02
same,"CDH1 expression, RNA-seq result","gene CDH1, hepatocytes",−0.25
same,"CEP19 expression, RNA-seq result","gene CEP19, hepatocytes",−0.43
same,"CEP83 expression, RNA-seq result","gene CEP83, hepatocytes",−0.13
same,"CEP164 expression, RNA-seq result","gene CEP164, hepatocytes",−0.32
same,"CEP290 expression, RNA-seq result","gene CEP290, hepatocytes",−0.17
same,"CFB expression, RNA-seq result","gene CFB, hepatocytes",0.17
same,"CFHR2 expression, RNA-seq result","gene CFHR2, hepatocytes",−0.16
same,"CHRM3 expression, RNA-seq result","gene CHRM3, hepatocytes",−0.14
same,"CIDEC expression, RNA-seq result","gene CIDEC, hepatocytes",0.24
same,"CLDN1 expression, RNA-seq result","gene CLDN1, hepatocytes",−0.71
same,"COG1 expression, RNA-seq result","gene COG1, hepatocytes",−0.28
